The subject of one test is Jurkat. The test can be described thus: Antitumor activity against Jurkat cells. In kind it is functional, cell-based. To be noted: Homo sapiens.
The subject of the next test is HeLa. The test can be described thus: Antitumor activity against HeLa cells. To be noted: Homo sapiens. Type of test: functional, cell-based.

With `COc1ccc(C(=O)O[C@H]2[C@H](O[C@H]3[C@H](OC(C)=O)[C@@H](O[C@H]4C[C@H]5C[C@@H](O)CC[C@]5(C)[C@@]4(O)[C@@H](C)C(=O)OCC(C)C)OC[C@H]3O)OC[C@@H](O)[C@@H]2O)cc1`, the IC50 – broadly, the concentration needed to halve the response being measured – with Jurkat is 21.1 µM; with HeLa, 800 nM.
The corresponding values for `COc1ccc(C(=O)O[C@H]2[C@H](O[C@H]3[C@H](OC(C)=O)[C@@H](O[C@H]4C[C@H]5C[C@@H](O)CC[C@]5(C)[C@@]4(O)[C@H](C)C(=O)OCC(C)C)OC[C@H]3O)OC[C@@H](O)[C@@H]2O)cc1` are 14.5 µM and 2600 nM.
`COc1ccc(C(=O)O[C@H]2[C@H](O[C@H]3[C@H](OC(C)=O)[C@@H](O[C@H]4C[C@H]5[C@@H]6CC=C7C[C@@H](O)CC[C@]7(C)[C@H]6CC[C@]5(C)[C@@]4(O)[C@H](C)C(=O)OCC(C)C)OC[C@H]3O)OC[C@@H](O)[C@@H]2O)cc1`: the IC50 in the test on Jurkat was 0.0013 µM; with HeLa it was 240 nM.
Taken in the same sequence, the figures for `COc1ccc(C(=O)O[C@H]2[C@H](O[C@H]3[C@H](OC(C)=O)[C@@H](O[C@H]4C[C@H]5CCCC[C@]5(C)[C@@]4(O)[C@H](C)C(=O)OCC(C)C)OC[C@H]3O)OC[C@@H](O)[C@@H]2O)cc1` were 8.9 µM and 14900 nM.

The record behind these values is ChEMBL document CHEMBL1137476, “Synthesis of the A,B-ring-truncated OSW saponin analogs and their antitumor activities” (Bioorg Med Chem Lett, 2007).
